# Measured values published in ChEMBL document CHEMBL5241080, “Quinoline anticancer agents active on DNA and DNA-interacting proteins: From classical to emerging therapeutic targets” (Eur J Med Chem, 2021).
# How the values were obtained:
# [1] = Oral bioavailability CD-1 mouse at 30 mg/kg; format: ADME, organism-based; conditions: in vivo
# K-562R = assay: Cytotoxicity against human K-562R cells by MTT assay; format: functional
# SW-620 = assay: Cytotoxicity against human SW620 cells by MTT assay; format: functional
# MCF7 [2] = assay: Cytotoxicity against human MCF7 cells by MTT assay; format: functional
# HeLa [3] = assay: Cytotoxicity against human HeLa cells by MTT assay; format: functional
# [4] = Cytotoxicity against human CAL1 cells by MTT assay; format: functional
# SW480 = assay: Cytotoxicity against human SW480 cells by MTT assay; format: functional
# C-33-A = assay: Cytotoxicity against human C-33-A cells by MTT assay; format: functional
# BT-483 = assay: Antiproliferative activity against human BT-483 cells; format: functional, cell-based
# NCI-H929 = assay: Antiproliferative activity against human NCI-H929 cells; format: functional, cell-based
# U-266 = assay: Antiproliferative activity against human U-266 cells; format: functional, cell-based
# RPMI-8226 = assay: Antiproliferative activity against human RPMI-8226 cells; format: functional, cell-based
# [5] = molecular target: Protein deacetylase HDAC6 (Homo sapiens, UniProt Q9UBN7); assay: Inhibition of HDAC6 (unknown origin)
# Chain of Protein deacetylase HDAC6 (Q9UBN7 whole entry): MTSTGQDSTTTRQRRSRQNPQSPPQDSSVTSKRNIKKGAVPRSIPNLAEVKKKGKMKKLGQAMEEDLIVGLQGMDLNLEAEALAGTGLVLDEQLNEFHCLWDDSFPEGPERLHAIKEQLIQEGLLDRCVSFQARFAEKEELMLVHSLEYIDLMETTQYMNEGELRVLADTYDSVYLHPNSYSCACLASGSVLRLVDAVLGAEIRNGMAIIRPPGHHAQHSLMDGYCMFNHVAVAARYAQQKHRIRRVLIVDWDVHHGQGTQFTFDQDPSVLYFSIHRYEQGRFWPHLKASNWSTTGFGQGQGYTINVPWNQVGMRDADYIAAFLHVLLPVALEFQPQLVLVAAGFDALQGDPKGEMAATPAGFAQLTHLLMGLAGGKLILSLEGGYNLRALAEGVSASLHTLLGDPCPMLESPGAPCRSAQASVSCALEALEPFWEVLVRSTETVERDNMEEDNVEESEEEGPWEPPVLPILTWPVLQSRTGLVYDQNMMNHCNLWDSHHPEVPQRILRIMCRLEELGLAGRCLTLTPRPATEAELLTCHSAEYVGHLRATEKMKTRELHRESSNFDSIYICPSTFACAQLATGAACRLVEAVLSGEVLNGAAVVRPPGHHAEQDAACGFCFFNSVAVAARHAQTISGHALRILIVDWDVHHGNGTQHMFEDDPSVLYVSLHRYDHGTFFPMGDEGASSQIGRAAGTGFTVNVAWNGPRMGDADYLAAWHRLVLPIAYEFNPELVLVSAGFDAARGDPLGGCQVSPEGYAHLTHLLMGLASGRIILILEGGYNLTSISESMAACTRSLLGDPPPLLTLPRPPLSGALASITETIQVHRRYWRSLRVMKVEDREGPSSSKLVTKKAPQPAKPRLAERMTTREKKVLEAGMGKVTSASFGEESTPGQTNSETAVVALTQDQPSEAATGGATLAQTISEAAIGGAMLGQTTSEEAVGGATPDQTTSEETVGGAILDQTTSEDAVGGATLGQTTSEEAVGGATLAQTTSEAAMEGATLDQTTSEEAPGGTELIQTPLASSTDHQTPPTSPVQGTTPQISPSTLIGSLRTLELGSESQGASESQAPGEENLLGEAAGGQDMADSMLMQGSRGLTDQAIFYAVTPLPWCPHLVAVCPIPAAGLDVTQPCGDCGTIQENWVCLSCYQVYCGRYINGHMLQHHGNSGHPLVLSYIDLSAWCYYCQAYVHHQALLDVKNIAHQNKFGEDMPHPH
# A549 [6] = assay: Antiproliferative activity against human A549 cells; format: functional, cell-based
# B16-F10 = assay: Antiproliferative activity against mouse B16-F10 cells; format: functional, cell-based
# MCF7 [7] = assay: Antiproliferative activity against human MCF7 cells; format: functional, cell-based
# Jurkat E6.1 = assay: Antiproliferative activity against human Jurkat E6.1 cells; format: functional, cell-based
# Histone deacetylase 8 = Histone deacetylase 8 (Homo sapiens, UniProt Q9BY41); assay: Inhibition of HDAC8 (unknown origin)
# Chain of Histone deacetylase 8 (Q9BY41 whole entry): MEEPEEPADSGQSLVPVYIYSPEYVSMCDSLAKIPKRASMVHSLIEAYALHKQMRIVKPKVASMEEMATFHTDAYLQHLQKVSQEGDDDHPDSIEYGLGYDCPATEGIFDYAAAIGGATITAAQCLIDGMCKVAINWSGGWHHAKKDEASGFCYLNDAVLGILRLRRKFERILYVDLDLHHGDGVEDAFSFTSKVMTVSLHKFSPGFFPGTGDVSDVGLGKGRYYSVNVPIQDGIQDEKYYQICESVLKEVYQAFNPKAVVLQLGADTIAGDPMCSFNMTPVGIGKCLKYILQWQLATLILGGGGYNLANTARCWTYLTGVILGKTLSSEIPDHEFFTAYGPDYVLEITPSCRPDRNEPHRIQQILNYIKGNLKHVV
# HeLa [8] = assay: Antiproliferative activity against human HeLa cells; format: functional, cell-based
# [9] = Antiproliferative activity against human MED-MEB-8A cells; format: functional, cell-based
# PC-3 [10] = assay: Antiproliferative activity against human PC-3 cells; format: functional, cell-based
# [11] = Antiproliferative activity against mouse P338 cells; format: functional, cell-based
# [12] = Inhibition of topoisomerase 2 (unknown origin); set-up: species or system Homo sapiens
# KB = assay: Antiproliferative activity against human KB cells; format: functional, cell-based
# DNA topoisomerase 1 = molecular target: T1, DNA topoisomerase 1 (Homo sapiens, UniProt P11387); assay: Inhibition of topoisomerase 1 (unknown origin)
# T1 sequence (P11387 whole entry): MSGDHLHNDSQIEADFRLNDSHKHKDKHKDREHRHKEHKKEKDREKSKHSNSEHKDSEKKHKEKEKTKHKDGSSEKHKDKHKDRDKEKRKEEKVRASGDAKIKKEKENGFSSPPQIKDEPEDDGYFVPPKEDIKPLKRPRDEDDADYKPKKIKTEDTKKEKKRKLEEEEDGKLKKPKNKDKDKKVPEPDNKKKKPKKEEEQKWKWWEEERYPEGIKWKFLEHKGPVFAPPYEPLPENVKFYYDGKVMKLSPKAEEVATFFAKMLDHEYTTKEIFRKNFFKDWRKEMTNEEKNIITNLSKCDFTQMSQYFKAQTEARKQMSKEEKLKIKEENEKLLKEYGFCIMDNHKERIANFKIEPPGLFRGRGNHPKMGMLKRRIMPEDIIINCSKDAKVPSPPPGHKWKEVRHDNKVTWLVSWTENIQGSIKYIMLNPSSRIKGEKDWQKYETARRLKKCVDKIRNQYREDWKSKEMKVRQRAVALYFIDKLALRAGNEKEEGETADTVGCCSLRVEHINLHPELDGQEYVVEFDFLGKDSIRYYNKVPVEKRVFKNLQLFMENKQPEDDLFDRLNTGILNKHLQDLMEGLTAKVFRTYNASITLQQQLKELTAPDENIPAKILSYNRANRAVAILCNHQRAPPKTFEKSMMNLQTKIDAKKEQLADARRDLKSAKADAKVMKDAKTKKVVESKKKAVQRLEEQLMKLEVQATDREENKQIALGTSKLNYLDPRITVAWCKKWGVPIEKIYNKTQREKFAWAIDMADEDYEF
# HCT-116 [13] = assay: Antiproliferative activity against human HCT-116 cells; format: functional, cell-based
# Histone deacetylase = assay: Inhibition of HDAC (unknown origin); format: protein assay, Homo sapiens
# HeLa [14] = assay: Antiproliferative activity against human HeLa cells incubated for 24 hrs by WST-1 assay; format: functional, cell-based
# A549 [15] = assay: Cytotoxicity against human A549 cells incubated for 72 hrs by MTT assay; format: functional, cell-based; conditions: A549, 72 h
# HCT-116 [16] = assay: Cytotoxicity against human HCT-116 cells assessed as inhibition of cell growth incubated for 72 hrs by MTT assay; format: functional, cell-based; conditions: HCT-116, 72 h
# [17] = molecular target: Hepatocyte growth factor receptor (Homo sapiens, UniProt P08581); assay: Inhibition of c-MET (unknown origin)
# Chain of Hepatocyte growth factor receptor (P08581 whole entry): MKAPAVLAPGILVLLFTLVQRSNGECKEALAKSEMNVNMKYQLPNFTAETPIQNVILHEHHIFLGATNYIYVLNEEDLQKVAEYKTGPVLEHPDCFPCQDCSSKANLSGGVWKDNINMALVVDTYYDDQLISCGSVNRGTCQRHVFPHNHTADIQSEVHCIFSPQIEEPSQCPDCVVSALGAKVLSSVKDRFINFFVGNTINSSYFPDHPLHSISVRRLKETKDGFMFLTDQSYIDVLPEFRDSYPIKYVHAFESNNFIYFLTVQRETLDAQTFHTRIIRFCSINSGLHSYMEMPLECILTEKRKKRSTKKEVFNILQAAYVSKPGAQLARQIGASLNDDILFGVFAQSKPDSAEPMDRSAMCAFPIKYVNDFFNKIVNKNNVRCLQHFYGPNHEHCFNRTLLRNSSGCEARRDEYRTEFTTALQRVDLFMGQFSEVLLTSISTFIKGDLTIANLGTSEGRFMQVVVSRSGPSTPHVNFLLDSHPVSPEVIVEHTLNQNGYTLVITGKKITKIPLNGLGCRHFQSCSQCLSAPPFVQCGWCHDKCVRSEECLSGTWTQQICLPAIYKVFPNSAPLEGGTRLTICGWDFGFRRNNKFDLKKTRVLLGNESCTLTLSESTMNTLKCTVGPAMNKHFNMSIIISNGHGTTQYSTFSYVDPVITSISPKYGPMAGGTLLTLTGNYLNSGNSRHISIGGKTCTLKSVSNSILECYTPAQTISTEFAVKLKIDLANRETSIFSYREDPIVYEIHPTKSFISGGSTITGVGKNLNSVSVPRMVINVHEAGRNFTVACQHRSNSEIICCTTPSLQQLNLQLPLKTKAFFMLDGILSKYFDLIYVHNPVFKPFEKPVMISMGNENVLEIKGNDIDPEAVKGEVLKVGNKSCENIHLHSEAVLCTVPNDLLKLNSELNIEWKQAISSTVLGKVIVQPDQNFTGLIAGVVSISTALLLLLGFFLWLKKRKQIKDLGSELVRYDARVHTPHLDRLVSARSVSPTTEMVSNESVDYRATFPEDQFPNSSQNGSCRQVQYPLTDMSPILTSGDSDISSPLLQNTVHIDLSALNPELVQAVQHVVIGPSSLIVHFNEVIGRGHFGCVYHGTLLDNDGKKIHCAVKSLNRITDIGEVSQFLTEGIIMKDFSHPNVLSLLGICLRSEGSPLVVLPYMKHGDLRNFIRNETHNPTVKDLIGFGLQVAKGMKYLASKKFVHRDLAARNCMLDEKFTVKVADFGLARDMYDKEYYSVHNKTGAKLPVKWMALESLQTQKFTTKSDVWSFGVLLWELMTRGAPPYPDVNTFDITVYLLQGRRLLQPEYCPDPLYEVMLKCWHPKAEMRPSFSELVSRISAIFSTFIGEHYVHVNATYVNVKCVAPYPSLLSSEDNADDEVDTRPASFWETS
# PC-3 [18] = assay: Antiproliferative activity against human PC-3 cells assessed as reduction cell viability incubated for 48 hrs by MTT assay; format: functional, cell-based; conditions: PC-3, 48 h
# Raji = assay: Antiproliferative activity against human Raji cells assessed as reduction cell viability incubated for 48 hrs by MTT assay; format: functional, cell-based
# [19] = molecular target: DNA (cytosine-5)-methyltransferase 3A (Homo sapiens, UniProt Q9Y6K1); assay: Inhibition of human recombinant DNMT3A (214 to 912 residues)expressed in Sf9 insect cells using lambda DNA as substrate by scintillation/filter plate assay
# Chain of DNA (cytosine-5)-methyltransferase 3A (Q9Y6K1 whole entry, looked up, the tested form may be a part): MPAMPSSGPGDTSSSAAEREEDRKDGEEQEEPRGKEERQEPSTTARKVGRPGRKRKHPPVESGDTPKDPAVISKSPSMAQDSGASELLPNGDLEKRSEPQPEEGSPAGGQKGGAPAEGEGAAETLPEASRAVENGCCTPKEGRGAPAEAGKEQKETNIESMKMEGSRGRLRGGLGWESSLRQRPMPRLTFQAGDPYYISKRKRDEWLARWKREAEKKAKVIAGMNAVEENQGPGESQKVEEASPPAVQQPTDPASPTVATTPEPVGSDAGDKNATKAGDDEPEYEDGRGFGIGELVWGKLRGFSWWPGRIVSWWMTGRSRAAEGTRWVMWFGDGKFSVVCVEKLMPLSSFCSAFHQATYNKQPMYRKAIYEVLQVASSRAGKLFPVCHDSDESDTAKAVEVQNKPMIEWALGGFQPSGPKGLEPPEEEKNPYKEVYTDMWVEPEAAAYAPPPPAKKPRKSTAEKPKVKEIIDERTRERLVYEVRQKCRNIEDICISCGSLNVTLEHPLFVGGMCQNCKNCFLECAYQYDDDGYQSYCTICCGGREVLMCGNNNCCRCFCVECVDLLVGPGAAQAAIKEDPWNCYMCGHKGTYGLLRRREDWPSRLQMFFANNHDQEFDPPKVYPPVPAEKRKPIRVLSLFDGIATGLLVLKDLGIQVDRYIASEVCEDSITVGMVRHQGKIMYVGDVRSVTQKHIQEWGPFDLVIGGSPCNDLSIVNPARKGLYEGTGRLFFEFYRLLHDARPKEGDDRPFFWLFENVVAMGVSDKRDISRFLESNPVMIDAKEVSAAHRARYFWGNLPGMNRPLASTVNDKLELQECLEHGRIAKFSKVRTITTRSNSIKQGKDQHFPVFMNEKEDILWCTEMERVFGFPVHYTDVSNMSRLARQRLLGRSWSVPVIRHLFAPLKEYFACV
# U-937 = assay: Antiproliferative activity against human U-937 cells assessed as reduction cell viability incubated for 48 hrs by MTT assay; format: functional, cell-based; conditions: U-937, 48 h
# MDA-MB-231 = assay: Antiproliferative activity against human MDA-MB-231 cells assessed as reduction cell viability incubated for 48 hrs by MTT assay; format: functional, cell-based; conditions: MDA-MB-231, 48 h
# [20] = Antiproliferative activity against human RPMI cells assessed as reduction cell viability incubated for 48 hrs by MTT assay; format: functional, cell-based
# [21] = molecular target: DNA (cytosine-5)-methyltransferase 1 (Homo sapiens, UniProt P26358); assay: Inhibition of human recombinant full-length N-terminal GST tagged DNMT1 (2 to 1632 residues) expressed in Sf9 insect cells using poly(dI-dC) as substrate by hotspot assay
# A549 [22] = assay: Antiproliferative activity against human A549 cells assessed as reduction in cell viability incubated for 48 hrs by MTT assay; format: functional, cell-based; conditions: A549, 48 h
# HeLa [23] = assay: Antiproliferative activity against human HeLa cells assessed as reduction in cell viability incubated for 48 hrs by MTT assay; format: functional, cell-based
structure (smiles),measurement,setting,value
COc1ccc2c(c1)/C(=N\OCCN1CCCC1)c1c-2c(O)nc2ccccc12,bioavailability,[1],10.9%
CCN(CC)CCNc1nc2c(Nc3ccccc3)c3ccccc3nc2s1,GI50,K-562R,15900 nM
same,GI50,SW-620,15900 nM
same,GI50,MCF7 [2],15900 nM
same,GI50,HeLa [3],15900 nM
same,GI50,[4],15900 nM
same,GI50,SW480,15900 nM
same,GI50,C-33-A,15900 nM
COc1ccc2c(c1)/C(=N\OCCCN(C)C)c1c-2c(N2CCNCC2)nc2ccccc12,IC50,BT-483,1100 nM
O=C(/C=C/c1cccc(S(=O)(=O)c2ccc3ccccc3n2)c1)NO,IC50,NCI-H929,9140 nM
same,IC50,U-266,40600 nM
same,IC50,RPMI-8226,7490 nM
same,IC50,[5],0.291 nM
same,IC50,A549 [6],270 nM
COc1cc(NC(=O)NOCCCCCC(=O)NO)c2nc(OC)cc(C)c2c1,IC50,B16-F10,9760 nM
same,IC50,MCF7 [7],11400 nM
same,IC50,Jurkat E6.1,7190 nM
same,IC50,Histone deacetylase 8,1.74 nM
same,IC50,HeLa [8],11000 nM
same,IC50,[9],590 nM
same,IC50,A549 [6],9120 nM
O=C(NO)c1ccc(CNc2cccc3cccnc23)cc1,IC50,PC-3 [10],3280 nM
same,IC50,[5],2.73 nM
same,IC50,A549 [6],5330 nM
CN(C)CCNc1nc2cc(O)ccc2c2c1C(=O)c1ccccc1-2,IC50,[11],1.1 nM
same,IC50,[12],6500 nM
same,IC50,KB,9.6 nM
same,IC50,DNA topoisomerase 1,2000 nM
CCN(CC)CCOC(=O)c1ccc2c(c1)c1nc3ccccc3c(OCCN(CC)CC)c1n2CCN(CC)CC,IC90,HCT-116 [13],< 10000 nM
C/C(=C\c1ccc(C(=O)NO)cc1)CNc1cnc2c(Br)cccc2c1,IC50,Histone deacetylase,28 nM
same,IC50,HeLa [14],1800 nM
COc1cc2c(Oc3ccc(NC(=O)C4CCN(c5ccc(F)cc5)C4=O)cc3)ccnc2cc1OCCCCCCC(=O)NO (stereo unspecified),IC50,A549 [15],1080 nM
same,IC50,HCT-116 [16],0.54 nM
same,IC50,[17],12.5 nM
O=C(Nc1ccc(NC(=O)c2ccc(Nc3ccnc4ccccc34)cc2)cc1)OCc1ccccc1,IC50,PC-3 [18],900 nM
same,IC50,Raji,400 nM
same,IC50,[19],17000 nM
same,IC50,U-937,400 nM
same,IC50,MDA-MB-231,900 nM
same,IC50,[20],2400 nM
same,IC50,[21],67000 nM
CN(C)CCCO/N=C1\c2cc(OCCCN(C)C)ccc2-c2cnc3ccccc3c21,IC50,[12],4950 nM
same,IC50,A549 [22],1110 nM
same,bioavailability,[1],39.8%
same,IC50,HeLa [23],390 nM
same,IC50,DNA topoisomerase 1,2630 nM
